In patent US20230144203A1 (SHANGHAI SENHUI MEDICINE CO., LTD., priority 2020, published 2023):
pIC50: −log10 of the molar value.

Key:
Format in all cases: cell-based
MDA-MB-468 = experiment: Test Example 2 in vitro cytotoxic activity screening (CTG)
Procedure: (§1) The CTG is used for detecting the ATP content in the experiment, and the survival condition of the tumor cells is reflected.
(§2) A549, SKBR3 and MDA-MB-468 were digested with trypsin, and each was resuspended in culture medium to a cell density of 2.2×10^4 cells/mL, and 135 μL of cell suspension was added to each well in columns 2 to 11 of a 96-well plate, and column 12 was set as blank control. The cells were incubated in an incubator for 24 h at 37° C. with 5% CO2.
(§3) a) Stock solution preparation: the test compound and positive control drug were dissolved in DMSO to give a stock solution at a concentration of 5 mM.
(§4) b) Drug preparation plate 1: stock solution in column 1 was initially diluted 40-fold, and 3-fold gradient dilutions were performed sequentially in column 2 to column 11. Column 12 was filled with DMSO.
(§5) c) Drug preparation plate 2: 196 μL of the corresponding culture medium was added into columns 2 to 11, and 4 μL of culture medium was pipetted from column 3 to column 12 of drug preparation plate 1 to column 2 to column 11 of drug preparation plate
(§6) 15 μL of culture medium was pipetted from the drug preparation plate 2 and added into the plated cells. The cells were continuously incubated in an incubator for 5 h at 37° C. with 5% CO2.
(§7) 2.4) CTG assay (Cell Titer-Glo™, luminescent cell viability assay): the cell plates were removed and balanced to room temperature. 75 μL of CTG was added into each well and reacted at room temperature for 10 min in the dark. The absorption value was read using a microplate reader and IC50 was calculated.

A549 = experiment: as above
Procedure: as §1, §2, §3, §4, §5, §6, §7

SKBR3 = experiment: as above
Procedure: as §1, §2, §3, §4, §5, §6, §7

BXPC3 = experiment: Test Example 4 cell killing study (CTG, 6 days); settings: Homo sapiens, BXPC-3, 144 h, 6 days culture
Source text: (§8) The objective of this study is to test the inhibitory activity of the anti-TROP-2 antibody (PD3)-drug conjugate of the present disclosure against the proliferation of different tumor cell lines: Miapaca2 tumor cells (human pancreatic cancer cells, Nanjing Kebai Biotechnology Co., Ltd., Cat #CBP60544), Fadu tumor cells (human squamous cell carcinoma, ATCC, Cat #HTB-43), SK-OV-3 (human ovarian cancer cells, ATCC, Cat #HTB-77), K562 (human chronic granulocytic leukemia cells, ATCC, Cat #CCL-243), HCC827 (human lung cancer cells, ATCC, Cat #CRL-2868) and BXPC3 (human pancreatic cancer cells, ATCC, Cat #CRL-1687). The cells were treated in vitro with the antibody drug conjugate at different concentrations. After 6 days of culture, the proliferation of cells was tested using CTG (CellTiter-Glo® Luminescent Cell Viability Assay, Promega, Cat #G7573) reagents, and the in vitro activity of the antibody drug conjugate was evaluated according to IC50 value.
(§9) 2) Cell plating: on the day of the study, after the cells were digested with Trypsin (0.25% Trypsin-EDTA (1×), Life Technologies, Cat #25200-072), MiaPaCa2, Fadu, SK-OV-3, K562, HCC827 and BXPC3 were suspended in cell suspensions using the corresponding media to a density of 3.7×10^3 cells/mL, and 135 μL of suspension was added into each well of a 96-well plate (coming, Cat #3903) to culture 500 cells per well at 37° C. for 24 h.
(§10) 3) Drug preparation: the mother liquor of the test ADC was first adjusted to have a concentration of 4 μM and was added to the first column of a drug preparation plate (coming, Cat #3599). The plate was diluted 5-fold in gradient from column 2 to column 9, with PBS in column 10. 15 μL of the mother liquor in each well was added to the cell culture plate.
(§11) 4) CTG assay: after being cultured at 37° C. for 6 days, the cell culture plate was removed and balanced to room temperature. 75 μL of CTG was added into each well and reacted at room temperature for 10 min in the dark. The absorption value was read using a microplate reader (BMG labtech, PHERAstar FS).
(§12) Data were processed and analyzed using Graphpad Prism 5.

SK-OV-3 = experiment: Test Example 4 cell killing study (CTG, 6 days); settings: Homo sapiens, SK-OV-3, 144 h, 6 days culture, read-out: IC50 (SKOV3)
Source text: as §8, §9, §10, §11, §12

Fadu tumor cells = experiment: Test Example 4 cell killing study (CTG, 6 days); settings: Homo sapiens, 144 h, 6 days culture
Source text: as §8, §9, §10, §11, §12

HCC827 = experiment: Test Example 4 cell killing study (CTG, 6 days); settings: Homo sapiens, HCC827, 144 h, 6 days culture
Source text: as §8, §9, §10, §11, §12

K562 = experiment: Test Example 4 cell killing study (CTG, 6 days); settings: Homo sapiens, K562, 144 h, 6 days culture
Source text: as §8, §9, §10, §11, §12

Miapaca2 tumor cells = experiment: Test Example 4 cell killing study (CTG, 6 days); settings: Homo sapiens, MIA PaCa-2, 144 h, 6 days culture, read-out: IC50 (Miapaca)
Source text: as §8, §9, §10, §11, §12

Question: With `C=C1C[C@@H]2CC[C@@]34C[C@H]5O[C@H]6[C@@H](O3)[C@H]3O[C@H](CC[C@@H]3O[C@H]6[C@H]5O4)CC(=O)C[C@@H]3[C@@H](OC)[C@@H](C[C@H](O)CO)O[C@H]3C[C@H]3O[C@@H](CC[C@@H]1O2)C[C@@H](C)C3=C` [Compound E1-30, reference compound] as the molecule, how does the pIC50 (MDA-MB-468; Homo sapiens, MDA-MB-468, 5 h) read?
Answer: Its pIC50 is 9.44.

Question: And the Maximum inhibition (MDA-MB-468; MDA-MB-468, CTG, incubated 5 h)?
Answer: The Maximum inhibition was 90.49%.

Question: And the Maximum inhibition (A549; A549, CTG, incubated 5 h)?
Answer: The Maximum inhibition was 62.46%.

Question: What about the pIC50 (A549; Homo sapiens, A549, 5 h) of the same molecule?
Answer: Its pIC50 is 9.11.

Question: And the pIC50 (SKBR3; Homo sapiens, SK-BR-3, 5 h)?
Answer: Its pIC50 is 9.78.

Question: And the Maximum inhibition (SKBR3; SKBR3, CTG, incubated 5 h)?
Answer: The Maximum inhibition was 96.15%.

Question: And the pIC50 (BXPC3)?
Answer: The pIC50 was 9.64.

Question: And the pIC50 (SK-OV-3)?
Answer: The pIC50 was 9.77.

Question: What about the pIC50 (Fadu tumor cells) of the same molecule?
Answer: Its pIC50 is 9.49.

Question: And the pIC50 (HCC827)?
Answer: Its pIC50 is 9.51.

Question: And the pIC50 (K562)?
Answer: The pIC50 was 9.41.

Question: What about the pIC50 (Miapaca2 tumor cells) of the same molecule?
Answer: The pIC50 was 9.35.
